Measurements taken from patent US5098613A, “Anti-inflammatory agents” (Eli Lilly and Company, priority 1990, dated 1992).

Assays:
[1] = target: T1, leukotriene B4 specific receptor on the membrane of human neutrophils (Homo sapiens, UniProt Q15722); experiment: Inhibition of Binding of ^3 H-LTB4 to Peripheral Human Neutrophils; details: 4° C., 10 minutes
T1 construct: incubating neutrophils (1×10^7 cells) with 0.1-0.2 nM ^3 H-LTB4; endogenous in cells; host or cells: human peripheral blood neutrophils (buffy coats of two blood donors)
How it was run: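 Freshly isolated human donor neutrophils (1×10^7 cells) in HBSS/0.1% ovalbumin pH 7.3 were incubated with 0.1-0.2 nM ^3H-LTB4 and compound at 1×10^-5 or 1×10^-6 M for 10 min at 4 °C. Bound ligand was separated by centrifugation through phthalate oil and counted, then corrected for nonspecific binding and compared with compound-free control.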

[2] = system: Arachidonic Acid Induced Ear Edema; experiment: Arachidonic Acid-Induced Ear Edema Assay; format: in vivo, Female BALB/C mice; details: Mus musculus, 1 h; 0.028% in ethanol gel, topical, one hour prior to arachidonic acid; read-out: Percent Inhibition of Ear Swelling
Protocol: Female BALB/C mice (Charles River; 18-20 rams) were divided into groups of five. Arachidonic acid was dissolved in ethanol at a concentration of 200 mg/ml. Each mouse received 2 mg/ear of arachidonic acid on the inner surface of the right ear. This dose of phlogistic was applied by an automatic pipette in 10 mcl volumes. The left ear (control) received ethanol. Drugs were applied topically in an ethanol-based gel to the entire outer surface of both ears one hour prior to arachidonic acid application. Edema was measured by the increase in ear weight. An hour after arachidonic acid solution or vehicle was applied, an ear sample of 7 mm in diameter was obtained from both ears. Ear edema was calculated by subtracting the […], dividing by the weight of the left/Control ear, and averaging the results for each group of mice according to compound and concentration.

[3] = system: inflammation created by injecting carrageenin into the hind paws of rats; experiment: Carrageenin Assay; format: in vivo; details: Rattus norvegicus, ip, 50 mg/kg i.p., prior to carrageenin injection, read-out: Percent Inhibition (Antiinflammatory Activity in the Carrageenin Assay)
Protocol: The compounds were evaluated for antiinflammatory activity in the test method described by C. A. Winter, Proc. Soc. Exp. Biol. Med., 111, 544 (1962). In this test, inflammation is created by injecting carrageenin into the hind paws of rats. Test compounds are administered prior to injection to determine percent inhibition of the subsequent inflammation in comparison with control animals.

[4] = system: shock after E. coli LPS and galactosamine (GALN) challenge; experiment: Mouse Endotoxin Shock Assay; format: in vivo, C57BL/6 male mice; details: LPS/GALN s.c. challenge, results 48 hours after challenge, Reed Muench Method
Protocol: Compounds were given to 18-20 g C57BL/6 male mice using various regimens depending upon mode of administration. Control animals received corresponding vehicles only. The mice were then challenged with 0.2 ml of chromatographically purified 0111:B4 E. coli LPS and galactosamine hydrochloride (GALN) given subcutaneously (back of the neck). GALN was given at an approximate dose of 500 mg/kg whereas the LPS dose ranged between 0.3-1.2 μg/mouse (15-60 μg/k9). Control animals generally die of shock 7-15 hours after administration of LPS/GALN although a small number (0-5%) may die 24-48 hours after such administration. Calculation of the EDso for each compound was performed using the Reed Muench Method for results obtained 48 hours after challenge.

[5] = system: IL-1 induced T-cell Proliferation; experiment: Anti IL-1 Activity (Thymocyte Assay): suppression of IL-1 induced T-cell proliferation; format: cell-based, C3H/HeJ male mice; details: mouse thymocytes, 48 hours, read-out: Percent T-cell suppression
Protocol: Thymus from 3-4 week old C3H/HeJ male mice and were passed through a #100 mesh screen to make a single cell suspension. The cells were suspended in RPMI-1640 supplemented with 2×10^-5 M 2-mercaptoethanol, 3% fetal calf serum, and 1% Penicillin/Streptomycin. The cell suspension was placed in a tissue culture flask and incubated at 37° C. in 5% carbon dioxide in air for 1-2 hours. The thymocytes were decanted, leaving adherent cells behind, and the liquid was centrifuged at 1400 rpm for 10 minutes. After decanting the supernatant, the cells were resuspended and counted with a hemocytometer. The density was adjusted to […]. Fifty μ1 of the suspension were added to each well of a 96-well microtiter plate, followed by the addition of 25 μl of PHA and 25 μl IL-1 (1:25 dilution of a 10 mcg/ml stock solution) per well.
Each compound to be tested was dissolved in 30% DMSO/70% PBS to make a stock solution of 1 mg/ml. Fifteen μl of each compound were added to 300 μl of media in the serial dilution plate. Twenty-five μl of each drug were added to the test plate in quadruplicate wells across the plate. The plate was incubated at 37° C. in 5% carbon dioxide in air for 48 hours. The wells were pulsed with tritiated thymidine (5 μCi.well) for 4 hours before harvesting on a Skatron cell harvester. The filter discs were placed in mini-vials, scintillation fluid (Tol-Pop) was added, and the vials counted. The percent of counts for each vial compared with control samples wherein no compound was added (vehicles only) was determined for each compound and are reported as Table III below as the percent T-ce1 suppression.

T1 sequence (Q15722 whole entry): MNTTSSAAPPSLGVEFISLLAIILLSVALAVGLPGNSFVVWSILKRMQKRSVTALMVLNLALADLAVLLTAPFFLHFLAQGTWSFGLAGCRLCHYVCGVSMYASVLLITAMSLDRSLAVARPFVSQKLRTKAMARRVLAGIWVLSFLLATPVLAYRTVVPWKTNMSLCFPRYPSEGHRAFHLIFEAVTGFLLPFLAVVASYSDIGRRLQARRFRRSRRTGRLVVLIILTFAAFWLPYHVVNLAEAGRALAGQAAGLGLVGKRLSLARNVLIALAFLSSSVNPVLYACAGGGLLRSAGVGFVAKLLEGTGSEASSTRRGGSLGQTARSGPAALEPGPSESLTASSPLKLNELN

SMILES: CCc1cc(C(C)=O)c(O)cc1OCCCCCCS(C)(=O)=O [Example 83, 2-Hydroxy-4-[6-(methylsulfonyl)hexyl-oxy]-5-ethylacetophenone]
- inhibition at 10 µM ([1]; drug concentration 10^-5 M, read-out: LTB4 Binding Inhibition): 98%
- inhibition at 1 µM ([1]; drug concentration 10^-6 M): 61%
- inhibition in vivo at 0.028 % [2]: 59%
- inhibition in vivo at 50 mg/kg [3]: 26%
- ED50 [4]: > 50 mg/kg
- inhibition at 1 µg/mL ([5]; 1 mcg/ml): 29%
- inhibition at 10 µg/mL ([5]; 10 mcg/ml): 43%
